Values joined by “and” are separate entries in the source; they are usually repeats but may differ in a detail not shown here. Equal entries are not always repeated. Inconclusive results and toxic doses are left out.
Test system: P388 leukemia ip, CD2F1 mice, survival T/C
Test: NCI In Vivo Anticancer Drug Screen. Data for tumor model P388 Leukemia (intraperitoneal) in CD2F1 (CDF1) mice
Conditions: endpoint: median survival time, higher = longer survival
Outline: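 Mice carrying the transplanted tumor received test compound or vehicle. Survival was recorded in each group, and the value is the treated-group measurement divided by that of the vehicle-treated control group.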

[1] = dose: 5.0 mg/kg/injection, schedule: Q01DX009 (ip), vehicle: saline
[2] = dose: 10.0 mg/kg/injection, schedule: Q01DX009 (ip), vehicle: saline
[3] = dose: 50.0 mg/kg/injection, schedule: Q01DX005 (ip), vehicle: Klucel (hydroxypropylcellulose) (HPC)
[4] = dose: 100.0 mg/kg/injection, schedule: Q01DX005 (ip), vehicle: Klucel (hydroxypropylcellulose) (HPC)
[5] = dose: 200.0 mg/kg/injection, schedule: Q01DX005 (ip), vehicle: Klucel (hydroxypropylcellulose) (HPC)
[6] = dose: 100.0 mg/kg/injection, schedule: Q01DX001 (ip), vehicle: saline with Tween-80
[7] = dose: 200.0 mg/kg/injection, schedule: Q01DX001 (ip), vehicle: saline with Tween-80
[8] = dose: 50.0 mg/kg/injection, schedule: Q01DX005 (ip), vehicle: saline with Tween-80
[9] = dose: 100.0 mg/kg/injection, schedule: Q01DX005 (ip), vehicle: saline with Tween-80
[10] = dose: 200.0 mg/kg/injection, schedule: Q01DX005 (ip), vehicle: saline with Tween-80
[11] = dose: 50.0 mg/kg/injection, schedule: Q01DX009 (ip), vehicle: Klucel (hydroxypropylcellulose) (HPC)
[12] = dose: 100.0 mg/kg/injection, schedule: Q01DX009 (ip), vehicle: Klucel (hydroxypropylcellulose) (HPC)
[13] = dose: 60.0 mg/kg/injection, schedule: Q01DX005 (ip), vehicle: Klucel (hydroxypropylcellulose) (HPC)
[14] = dose: 120.0 mg/kg/injection, schedule: Q01DX005 (ip), vehicle: Klucel (hydroxypropylcellulose) (HPC)
[15] = dose: 12.5 mg/kg/injection, schedule: Q01DX005 (ip), vehicle: saline with Tween-80
[16] = dose: 50.0 mg/kg/injection, schedule: Q01DX009 (ip), vehicle: saline
[17] = dose: 100.0 mg/kg/injection, schedule: Q01DX009 (ip), vehicle: saline
[18] = dose: 60.0 mg/kg/injection, schedule: Q01DX005 (ip), vehicle: saline with Tween-80
[19] = dose: 120.0 mg/kg/injection, schedule: Q01DX005 (ip), vehicle: saline with Tween-80
[20] = dose: 240.0 mg/kg/injection, schedule: Q01DX005 (ip), vehicle: saline with Tween-80
[21] = dose: 200.0 mg/kg/injection, schedule: Q01DX009 (ip), vehicle: saline

Compound: c1ccc([C@H]2CN3CCSC3=N2)cc1
- T/C (dose: 1.25 mg/kg/injection, schedule: Q01DX009 (ip), vehicle: saline): 101 % of control
- T/C (dose: 2.5 mg/kg/injection, schedule: Q01DX009 (ip), vehicle: saline): 97 % of control
- T/C [1]: 101 % of control
- T/C (dose: 6.9 mg/kg/injection, schedule: Q01DX005 (ip), vehicle: saline): 98 % of control
- T/C [2]: 99 % of control
- T/C (dose: 11.5 mg/kg/injection, schedule: Q01DX001 (ip), vehicle: saline): 100 % of control and 109 % of control
- T/C (dose: 11.5 mg/kg/injection, schedule: Q01DX005 (ip), vehicle: saline): 103 % of control
- T/C (dose: 19.2 mg/kg/injection, schedule: Q01DX001 (ip), vehicle: saline): 99 % of control and 109 % of control
- T/C (dose: 19.2 mg/kg/injection, schedule: Q01DX005 (ip), vehicle: saline): 105 % of control
- T/C (dose: 20.0 mg/kg/injection, schedule: Q01DX009 (ip), vehicle: saline): 113 % of control
- T/C (dose: 32.0 mg/kg/injection, schedule: Q01DX001 (ip), vehicle: saline): 99 % of control

Compound: CCCOC1=NC2=NC(OCCC)=NC3=C(Br)C=C(Br)C(=N1)N23
- T/C [3]: 95 % of control
- T/C [4]: 94 % of control
- T/C [5]: 91 % of control

Compound: c1ccc(Nc2nn[nH]n2)cc1
- T/C [3]: 109 % of control
- T/C [4]: 107 % of control
- T/C [5]: 109 % of control

Compound: Cc1coc2c3c(ccc12)OC(C)(C)C=C3
- T/C [6]: 102 % of control
- T/C [7]: 104 % of control

Compound: CCCC1OCC2OC(Nc3ccccc3)C(O)C(O)C2O1 (stereo not drawn)
- T/C [8]: 103 % of control
- T/C [9]: 98 % of control
- T/C [10]: 103 % of control

Compound: CN(C)C(=O)Nc1ccc(-c2cccnc2)cc1
- T/C (dose: 60.0 mg/kg/injection, schedule: Q01DX005 (ip), vehicle: saline): 109 % of control
- T/C (dose: 120.0 mg/kg/injection, schedule: Q01DX005 (ip), vehicle: saline): 107 % of control
- T/C (dose: 240.0 mg/kg/injection, schedule: Q01DX005 (ip), vehicle: saline): 93 % of control

Compound: O=P(O)(O)SP(=O)(O)O.[Co]
- T/C [11]: 105 % of control
- T/C [12]: 94 % of control

Compound: COC(=O)c1ccnc(C(=O)OC)c1
- T/C (dose: 50.0 mg/kg/injection, schedule: Q01DX001 (ip), vehicle: saline): 86 % of control
- T/C (dose: 100.0 mg/kg/injection, schedule: Q01DX001 (ip), vehicle: saline): 95 % of control
- T/C (dose: 200.0 mg/kg/injection, schedule: Q01DX001 (ip), vehicle: saline): 100 % of control

Compound: CC(C)C1N=C(c2ccccc2)OC1=O (stereo not drawn)
- T/C [13]: 92 % of control
- T/C [14]: 92 % of control
- T/C (dose: 240.0 mg/kg/injection, schedule: Q01DX005 (ip), vehicle: Klucel (hydroxypropylcellulose) (HPC)): 100 % of control

Compound: COc1cc(NC(=O)CNC(=O)CNC(=O)C(N)CC(C)C)cc2ccccc12 (stereo not drawn)
- T/C [3]: 100 % of control
- T/C [4]: 96 % of control
- T/C [5]: 100 % of control

Compound: CCOC(=O)Nc1cc2c(c(N)n1)N=C(c1ccc(C)c(C)c1)CN2
- T/C (dose: 3.12 mg/kg/injection, schedule: Q01DX005 (ip), vehicle: saline with Tween-80): 122 % of control
- T/C [15]: 88 % of control

Compound: C1CN1P1(N2CC2)=NP(N2CC2)(N2CC2)=NP(N2CC2)(N2CC2)=NP(N2CC2)(N2CC2)=N1
- T/C [1]: 195 % of control
- T/C [2]: 222 % of control

Compound: CN1CCCN(C)C1c1ccccc1
- T/C (dose: 25.0 mg/kg/injection, schedule: Q01DX009 (ip), vehicle: saline): 105 % of control
- T/C [16]: 110 % of control
- T/C [17]: 95 % of control

Compound: O=C(Nc1ccccc1)c1cc2ccccc2oc1=O
- T/C (dose: 30.0 mg/kg/injection, schedule: Q01DX005 (ip), vehicle: saline with Tween-80): 99 % of control
- T/C [18]: 95 % of control
- T/C [19]: 94 % of control
- T/C [20]: 100 % of control

Compound: S=C(NCCN1CCN2Cc3[nH]c4ccccc4c3CC2C1)Nc1ccccc1 (stereo not drawn)
- T/C [8]: 94 % of control
- T/C [9]: 91 % of control
- T/C [10]: 102 % of control

Compound: FC(F)(F)c1ccccc1NC(=S)Nc1ccc(I)cc1
- T/C (dose: 50.0 mg/kg/injection, schedule: Q01DX009 (ip), vehicle: gum acacia): 92 % of control
- T/C (dose: 100.0 mg/kg/injection, schedule: Q01DX009 (ip), vehicle: gum acacia): 92 % of control
- T/C (dose: 200.0 mg/kg/injection, schedule: Q01DX009 (ip), vehicle: gum acacia): 89 % of control

Compound: CCCS(=O)(=O)N/N=C(\C)c1cccs1
- T/C [11]: 95 % of control
- T/C [12]: 87 % of control

Compound: O=S(=O)(O)c1ccc(N=Nc2c(S(=O)(=O)O)cc3cc(S(=O)(=O)O)cc(O)c3c2O)cc1
- T/C [16]: 93 % of control
- T/C [17]: 99 % of control
- T/C [21]: 106 % of control

Compound: CCC1CC(C)C(O)/C=C/C=C/CC(C)OC(=O)CC(O)C(OC)C1OC1CC(C)(O)C(O)C(C)O1 (stereo not drawn)
- T/C (dose: 10.5 mg/kg/injection, schedule: Q01DX005 (ip), vehicle: Klucel (hydroxypropylcellulose) (HPC)): 112 % of control
- T/C (dose: 21.0 mg/kg/injection, schedule: Q01DX005 (ip), vehicle: Klucel (hydroxypropylcellulose) (HPC)): 102 % of control
- T/C (dose: 42.0 mg/kg/injection, schedule: Q01DX005 (ip), vehicle: Klucel (hydroxypropylcellulose) (HPC)): 105 % of control
- T/C (dose: 84.0 mg/kg/injection, schedule: Q01DX005 (ip), vehicle: Klucel (hydroxypropylcellulose) (HPC)): 102 % of control

Compound: CCOC(=O)C1=C(NC(C)=O)Sc2ccccc2C1
- T/C [16]: 94 % of control
- T/C [17]: 103 % of control
- T/C [21]: 92 % of control

Compound: Cc1[nH]c2ccccc2c1SCc1ccccc1
- T/C (dose: 25.0 mg/kg/injection, schedule: Q01DX009 (ip), vehicle: saline + alcohol): 94 % of control
- T/C (dose: 50.0 mg/kg/injection, schedule: Q01DX009 (ip), vehicle: saline + alcohol): 100 % of control
- T/C (dose: 100.0 mg/kg/injection, schedule: Q01DX009 (ip), vehicle: saline + alcohol): 99 % of control

Compound: O=[N+]([O-])c1ccc(O)c(/C=N\NS(=O)(=O)c2ccc(Cl)cc2)c1
- T/C [8]: 108 % of control
- T/C [9]: 100 % of control

Compound: CCCCCC(=O)C(=O)c1ccc(O)cc1O
- T/C [11]: 89 % of control
- T/C [12]: 109 % of control
- T/C (dose: 200.0 mg/kg/injection, schedule: Q01DX009 (ip), vehicle: Klucel (hydroxypropylcellulose) (HPC)): 100 % of control

Compound: CNC(=O)c1ccccc1C(=O)c1ccccc1OC
- T/C [3]: 104 % of control
- T/C [4]: 99 % of control
- T/C [5]: 97 % of control

Compound: CC1(C)C2CC=C(CCOC(=S)S)C1C2.[Ni] (stereo not drawn)
- T/C (dose: 25.0 mg/kg/injection, schedule: Q01DX009 (ip), vehicle: saline with Tween-80): 90 % of control

Compound: CC1C(=O)CCC2(C)CCC(C)(C)CC12 (stereo not drawn)
- T/C (dose: 100.0 mg/kg/injection, schedule: Q01DX009 (ip), vehicle: saline with Tween-80): 91 % of control
- T/C (dose: 200.0 mg/kg/injection, schedule: Q01DX009 (ip), vehicle: saline with Tween-80): 104 % of control
- T/C (dose: 400.0 mg/kg/injection, schedule: Q01DX009 (ip), vehicle: saline with Tween-80): 95 % of control

Compound: O=C1CC(C2CCCCC2)C(=O)c2cc3cccnc3c(O)c21 (stereo not drawn)
- T/C [8]: 101 % of control
- T/C [9]: 99 % of control
- T/C [10]: 93 % of control

Compound: CCOc1c(N=Nc2ccc(Cl)cc2)c(C)nn1C(=S)S
- T/C [13]: 96 % of control
- T/C [14]: 97 % of control

Compound: COC(=O)/C(=C/C=C(c1ccccc1)c1ccccc1)N(C(C)=O)C(C)=O
- T/C [6]: 104 % of control
- T/C [7]: 104 % of control
- T/C (dose: 400.0 mg/kg/injection, schedule: Q01DX001 (ip), vehicle: saline with Tween-80): 96 % of control

Compound: CN(N=O)C(=O)NCCNC(=O)C1OC(n2ccc(=O)[nH]c2=O)C(O)C1O (stereo not drawn)
- T/C [17]: 108 % of control

Compound: COC1SCCn2c1nc1ccccc1c2=O (stereo not drawn)
- T/C [18]: 107 % of control
- T/C [19]: 98 % of control
- T/C [20]: 99 % of control

Compound: O=C1NCCCCC1(Cl)Cl
- T/C [15]: 99 % of control
- T/C (dose: 25.0 mg/kg/injection, schedule: Q01DX005 (ip), vehicle: saline with Tween-80): 101 % of control
- T/C [8]: 99 % of control and 103 % of control

Compound: NCCc1cc2ccccc2c2ccccc12
- T/C (dose: 12.5 mg/kg/injection, schedule: Q01DX005 (ip), vehicle: Klucel (hydroxypropylcellulose) (HPC)): 99 % of control
- T/C (dose: 25.0 mg/kg/injection, schedule: Q01DX005 (ip), vehicle: Klucel (hydroxypropylcellulose) (HPC)): 99 % of control
- T/C [3]: 99 % of control and 95 % of control
